Measurements reported in patent publication US6297282A, “Substituted derivatives of benzosulphonamides as inhibitors of the enzyme cyclooxygenase II” (Nycomed Austria GmbH, priority 1997, dated 2001).

Experiments:
[1] = biological target: T1, cyclooxygenase-II (human COX-2) (Homo sapiens, UniProt P35354); assay: Human COX-2 Test (LPS-stimulated human monocytoid cell line, arachidonic acid, ELISA of cyclooxygenase products); assay type: cell-based; settings: for IC50: LPS-stimulated human monocytoid cell line, half an hour incubation, then arachidonic acid 15 minutes, 37° C.; for COX I/COX II (selectivity): ratio of COX I IC50 to COX II IC50
T1 construct: endogenous in cells
T1 sequence (P35354 18-604): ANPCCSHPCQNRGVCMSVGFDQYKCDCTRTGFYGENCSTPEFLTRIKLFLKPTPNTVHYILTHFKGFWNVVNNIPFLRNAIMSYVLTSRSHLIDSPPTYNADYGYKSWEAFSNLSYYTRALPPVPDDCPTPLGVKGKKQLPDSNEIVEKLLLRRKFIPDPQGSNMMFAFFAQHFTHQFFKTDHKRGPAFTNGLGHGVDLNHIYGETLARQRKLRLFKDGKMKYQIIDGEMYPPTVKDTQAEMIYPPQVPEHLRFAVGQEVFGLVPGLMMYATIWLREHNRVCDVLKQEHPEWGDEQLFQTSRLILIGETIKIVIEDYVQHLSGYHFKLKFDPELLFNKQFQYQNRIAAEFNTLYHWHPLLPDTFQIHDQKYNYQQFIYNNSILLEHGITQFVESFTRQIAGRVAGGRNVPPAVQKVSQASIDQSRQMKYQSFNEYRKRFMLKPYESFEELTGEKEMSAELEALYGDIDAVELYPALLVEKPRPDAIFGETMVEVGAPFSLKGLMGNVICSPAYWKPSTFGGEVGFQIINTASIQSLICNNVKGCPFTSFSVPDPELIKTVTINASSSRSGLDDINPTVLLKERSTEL
Protocol: Cells of a human monocytoid cell line were stimulated with lipopolysaccharide (LPS) (incubator at 37° C., 5% CO2 -enriched atmosphere and almost 100% atmospheric humidity), in order to induce COX-2. Following this, the culture medium (RPMI 1640, enriched with 10% FCS, 2 mM glutamine, 10000 U/ml penicillin, […] and 1 mM pyruvate) is refreshed and potential inhibitor substances of cyclooxygenase-II, dissolved in culture medium or in phosphate-buffered saline or in some other solvent compatible with cell cultures, are added and then incubated for half an hour as described above. Arachidonic acid is added by pipette and incubation is carried out for a further 15 minutes. The culture supernatant of the cells is removed and its content of products of cyclooxygenase metabolism (e.g. Prostaglandin E2, Prostaglandin F1a, Thromboxane B2) is measured by ELISA.

[2] = biological target: T2, cyclooxygenase-I (human COX-1) (Homo sapiens, UniProt P23219); assay: Human COX-1 Test (inhibition of arachidonic acid-induced aggregation of washed human thrombocytes); assay type: cell-based; settings: arachidonic acid 10 μM final concentration, 37° C., test substance added 2 minutes before
T2 construct: arachidonic acid-induced aggregation of washed human thrombocytes; endogenous in cells; host or cells: washed human thrombocytes (blood platelets)
Protocol: Inhibition of the arachidonic acid-induced aggregation of washed human thrombocytes was used as a test system for an estimation of the inhibition of cyclooxygenase-I. A thrombocyte suspension at 37° C. was added to the test substances 2 minutes before addition of the arachidonic acid (10 μM final concentration) and the aggregation course was recorded via an aggregometer. With the assistance of a concentration-effect curve, the concentration of test substance was determined at which 50% aggregation was measured (IC50).

T2 sequence (P23219 24-599): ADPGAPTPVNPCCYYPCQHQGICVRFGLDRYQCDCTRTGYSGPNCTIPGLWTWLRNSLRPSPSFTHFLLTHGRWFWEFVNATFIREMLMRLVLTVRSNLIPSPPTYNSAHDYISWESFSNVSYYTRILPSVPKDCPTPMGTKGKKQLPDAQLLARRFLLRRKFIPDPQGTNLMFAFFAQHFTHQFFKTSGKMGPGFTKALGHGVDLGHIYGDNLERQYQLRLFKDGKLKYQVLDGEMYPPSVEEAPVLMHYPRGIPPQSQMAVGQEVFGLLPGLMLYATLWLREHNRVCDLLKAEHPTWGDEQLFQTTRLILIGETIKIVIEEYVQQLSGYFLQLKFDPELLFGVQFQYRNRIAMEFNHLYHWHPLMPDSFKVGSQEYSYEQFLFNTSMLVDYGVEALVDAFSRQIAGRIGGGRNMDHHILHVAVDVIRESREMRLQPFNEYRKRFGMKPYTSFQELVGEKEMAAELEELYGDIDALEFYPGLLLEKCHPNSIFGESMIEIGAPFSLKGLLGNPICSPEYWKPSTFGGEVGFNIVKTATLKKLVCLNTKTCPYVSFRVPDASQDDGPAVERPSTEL

Row | Structure (SMILES) | IC50 [1] | COX I/COX II (selectivity) [1] | IC50 [2]
1 | CS(=O)(=O)Nc1ccc(S(N)(=O)=O)c(Cl)c1Sc1ccc(Cl)cc1Cl [Example 1, 3-(2,4-Dichlorophenylthio)-2-chloro-4-methylsulphonylamino-benzosulphonamide] | 0.1 µM | 250 | 25 µM
2 | C=CS(=O)(=O)Nc1ccc(S(N)(=O)=O)cc1Sc1ccc(Cl)cc1Cl [Example 6, 3-(2,4-dichlorophenylthio)-4-vinylsulphonyl-amino-benzosulphonamide] | 0.1 µM | 200 | 20 µM
